Some test systems named below: CAKI-1 renal; COLO 205 colon; EKVX NSCLC; HCC-2998 colon; IGROV1 ovarian; OVCAR-8 ovarian; RPMI-8226 leukemia; RXF 393 renal; U251 CNS; UACC-257 melanoma.
Holding throughout (test): growth of human tumour cells (NCI), 48 h

Where “and” joins values, the source holds several entries; their conditions need not be identical. Equal entries are not always repeated.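 In this assay, cells in 96-well plates receive the compound at five concentrations for 48 hours. Endpoints are linearly interpolated between the surrounding concentrations. GI50 marks 50% less growth. TGI: concentration producing complete growth inhibition.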

As for `COC(=O)CCC(=O)N1C/C(=C\c2ccccc2)C(=O)/C(=C/c2ccccc2)C1`, the TGI in the assay with CAKI-1 renal was 3.22 µM; in the assay with COLO 205 colon, 3.67 µM; in the assay on EKVX NSCLC it was 14.3 µM; in the assay on HCC-2998 colon, 3.06 µM; in the assay with IGROV1 ovarian, 3.94 µM; with OVCAR-8 ovarian, 14.6 µM. Further, the TGI is above 100 µM with RPMI-8226 leukemia, 3.74 µM in the assay with RXF 393 renal, 2.6 µM in the assay with U251 CNS and 4.11 µM in the assay on UACC-257 melanoma.
For `Cc1cc(C(=O)/C=C/c2ccc[nH]2)ccc1-n1ccc(C(F)(F)F)n1`, the GI50 in the assay with CAKI-1 renal was 3.04 µM; with COLO 205 colon, 21.8 µM; in the assay on EKVX NSCLC it was 6.15 µM; with HCC-2998 colon, 20.1 µM; in the assay on IGROV1 ovarian it was 2.02 µM; in the assay with OVCAR-8 ovarian it was 6.27 µM. For the same molecule, the GI50 was 0.592 µM in the assay on RPMI-8226 leukemia, 1.8 µM in the assay on RXF 393 renal, 3.5 µM in the assay with U251 CNS and 21.9 µM in the assay with UACC-257 melanoma. In addition, the TGI in the assay with CAKI-1 renal is 28.7 µM; in the assay on COLO 205 colon it was above 100 µM; in the assay with EKVX NSCLC, above 100 µM; with HCC-2998 colon it was above 100 µM; in the assay with IGROV1 ovarian, 4.56 µM; in the assay with OVCAR-8 ovarian, above 100 µM. In addition, the TGI in the assay with RPMI-8226 leukemia was 3.33 µM; in the assay on RXF 393 renal, 4.74 µM; in the assay with U251 CNS, above 100 µM; in the assay with UACC-257 melanoma, above 100 µM.
Take `Cc1cc(-c2nnc(/C=C/c3ccc4c(c3)OCO4)o2)n[nH]1`: the GI50 in the assay on CAKI-1 renal was 3.89 µM; in the assay on COLO 205 colon, 15.4 µM; in the assay with EKVX NSCLC, 17.9 µM; in the assay with HCC-2998 colon it was 10.7 µM; with IGROV1 ovarian it was 9.57 µM; in the assay on OVCAR-8 ovarian, 22.8 µM. Also, the GI50 with RPMI-8226 leukemia is 2.99 µM; in the assay with RXF 393 renal, 20.9 µM; in the assay on U251 CNS, 13.6 µM; with UACC-257 melanoma, 23 µM. The TGI in the assay on CAKI-1 renal, in the assay on COLO 205 colon, in the assay with EKVX NSCLC, with HCC-2998 colon, with IGROV1 ovarian and in the assay with OVCAR-8 ovarian was above 50 µM each time. Moreover, the TGI was 32 µM in the assay on RPMI-8226 leukemia, above 50 µM with RXF 393 renal, above 50 µM in the assay on U251 CNS and above 50 µM with UACC-257 melanoma.
On to `CNCC/C=C1\c2cc3c(cc2-c2c1c1cc(OC)c(OC)cc1c(=O)n2C)OCO3`, for which the GI50 in the assay on CAKI-1 renal is 0.278 µM; in the assay on COLO 205 colon, 1.73 µM; in the assay with EKVX NSCLC it was 2.36 µM; in the assay on HCC-2998 colon, 3.41 µM; in the assay on IGROV1 ovarian, below 0.0505 µM; in the assay on OVCAR-8 ovarian, 0.248 µM. The GI50 in the assay with RPMI-8226 leukemia is 0.149 µM; in the assay with RXF 393 renal it was 1.51 µM; with U251 CNS, 0.309 µM; in the assay on UACC-257 melanoma, 3.13 µM. For the same molecule, the TGI worked out at 5.92 µM with CAKI-1 renal; 41.2 µM in the assay with COLO 205 colon; 18.3 µM in the assay with EKVX NSCLC; 33.6 µM with HCC-2998 colon; 6.55 µM in the assay with OVCAR-8 ovarian; 14.9 µM in the assay on RXF 393 renal. Moreover, the TGI amounted to 19.1 µM in the assay with U251 CNS and 12.4 µM with UACC-257 melanoma.
On to `O=C1/C(=C/c2ccc3c(c2)OCCO3)CCC/C1=C\c1ccc2c(c1)OCCO2`, for which the TGI in the assay on CAKI-1 renal was above 100 µM; with COLO 205 colon, 46.8 µM; in the assay on EKVX NSCLC it was above 100 µM; with HCC-2998 colon it was above 100 µM; in the assay on IGROV1 ovarian, above 100 µM; in the assay on OVCAR-8 ovarian, 30.6 µM. The TGI in the assay with RPMI-8226 leukemia came out at 45.8 µM; in the assay on RXF 393 renal, 53.5 µM; in the assay with U251 CNS, 36.7 µM; in the assay on UACC-257 melanoma, 59.7 µM.
For the molecule `CCCCCCCCCC[C@@H](O)[C@@H]1CC[C@@H]([C@@H]2CC[C@@H]([C@@H](O)CCCCCCCCCC[C@H](O)CC3=CC(C)OC3=O)O2)O1` (some centres not stated), the GI50 in the assay with CAKI-1 renal was 3.62 µM; in the assay with EKVX NSCLC it was 1.98 µM; with IGROV1 ovarian, 4.4 µM; in the assay on RPMI-8226 leukemia, 7.14 µM; in the assay on UACC-257 melanoma it was below 0.0462 µM. Moreover, the TGI in the assay on CAKI-1 renal is above 65.3 µM; in the assay on COLO 205 colon, above 27.5 µM; with EKVX NSCLC it was 8.5 µM and > 80 µM; in the assay with HCC-2998 colon, 9.13 µM; in the assay with IGROV1 ovarian, 7.47 µM and 36.8 µM; in the assay on OVCAR-8 ovarian, 8.06 µM and > 54.7 µM. For the same molecule, the TGI in the assay on RXF 393 renal is 9.8 µM; in the assay with U251 CNS, above 46 µM; with UACC-257 melanoma it was 7.89 µM.
As to `C1OC1CN1CCN(CC2CO2)CC1` (configuration not stated), the TGI in the assay on CAKI-1 renal, in the assay on COLO 205 colon, with EKVX NSCLC, with HCC-2998 colon, in the assay with IGROV1 ovarian and in the assay with OVCAR-8 ovarian was above 100 µM each time. Also, the TGI with RPMI-8226 leukemia, in the assay with RXF 393 renal, with U251 CNS and with UACC-257 melanoma was above 100 µM throughout.
